From patent US7662767B2, “Polynucleotide intercalator interceptors and inhibitors” (Materials Evolution and Development USA, Inc., priority 2000, dated 2010)
Several values for one entry are separate records, joined by “and”; a condition that tells them apart may be missing. Identical values can stand only once.

Columns and labels:
[1] = Optical titration (absorbance) of acridine orange with xanthines/purines, Kassoc from delta absorbance; assay type: binding; details: for Kassoc ± S.E.: binding affinity between acridine orange (10 μM) and compound, 5 mM HEPES pH 7.0, 25±1° C., 0 = no measurable association detected; for complex formation / binding affinity with AO: optical titration
Procedure: A red spectral shift in the optical adsorption maximum of AO upon the addition of a particular xanthine, indicates the possibility of a complex being formed between the two compounds. Spectral shifts can be measured by optical titrations.
Optical titrations (serial additions of various xanthines to a solution of AO) were performed on a Beckman DU-600 Scanning Spectrophotometer (Beckman Instrument Co., New York, N.Y.) using a 3 mL (1-cm light path) quartz cuvette containing 2.0 mL of a […]. The DU600 Spectrophotometer was blanked with 2 mL of a pH 7.0 buffered 5 mM HEPES solution over the full range of wavelengths to be scanned prior to sample analysis. This reduced the need to subtract the background absorbance from the HEPES buffer. Optical absorbance scans were performed over a wavelength range preferably from 400 nm to 550 nm. […] The 10 μM AO solution was scanned before the start of each titration series to quantitatively monitor any changes in the absorbance spectrum. Optical absorbance experiments were performed using aliquots varying in volume from 1:L to 20:L taken from prepared xanthine stock solutions (5 mM to 50 mM) and titrated into the cuvette containing 2.0 mL of the 10 μM AO solution. The solution in the cuvette was then thoroughly mixed by 10 seconds of shaking before scanning. All titrations were performed at room temperature (25±1° C.). The absorbance spectra were measured in 1 nm intervals and stored in digital form. Digitized scan data was converted to a Lotus Spreadsheet file (*.wk1) using a conversion program supplied by the manufacturer (Beckman Instruments Inc.) then imported into a Microsoft Excel 97™ Workbook file (*.xls) and saved in this format for further analysis. Spectral data for each titration was combined and expressed in graphic form (Excel™) (X-axis=wavelength in nm; Y-axis=optical absorbance) for each xanthine titrated with AO. […] Adjusted absorption values were plotted and compared to spectra from non-complexed AO. This allowed for the visualization of an expected spectral shift that occurs when AO forms a complex with a xanthine.
The association constant, Kassoc, may be used to analyze the binding ability of modified xanthines to DNA intercalators. The association constant may be calculated based upon a differential shift in the absorbance spectrum. When the presence of the xanthine caused a spectral shift, a difference absorbance plot or delta plot was obtained. Delta plots were constructed by subtracting the adjusted absorption spectrum of AO in the presence of the xanthine from the initial spectrum of AO alone at each wavelength and for each aliquot of the titration. This procedure allowed for the creation of difference absorption values or delta absorption values. Delta absorption values obtained in this manner (Y-axis=delta absorption) were plotted against wavelength in nm (X-axis). The appearance of a single isobestic point was indicative of only two species present in solution, AO, and an AO complex. Graphic representation allowed for the selection of a wavelength with the maximum sensitivity for determining the association constant. This wavelength was characterized by the greatest positive response in delta absorbance values observed upon addition of each aliquot of xanthine to the AO solution. The AO-xanthine association or binding constant was determined by the following equilibrium expression: I+X≡IX EQUATION 1: […]
Where I represents the intercalator (AO), X represents the interceptor molecule (xanthine), and IX represents the AO-xanthine complex, respectively.

[2] = system: chicken erythrocyte nuclear chromatin; test: Blocking of acridine orange intercalation into chicken erythrocyte nuclear chromatin, fluorescence microscopy; design: key: 0: no blocking effect; 1: slight blocking; 2: moderate blocking; 3: almost total blocking (very slight green fluorescence detectable); 4: complete blockage (no green fluorescence detectable); details: 10 μM AO
Procedure: Microscope slides coated with chicken erythrocyte were stained with 10 μM AO at three separate areas on the microscope slide as described above. Slides were exposed to […] different xanthies at four different molar ratios for three different periods of time. The xanthines, theophylline, caffeine, 1,3,7,9-tetramethyl uric acid, and aminophylline, were prepared with 10 μM AO at molar ratios of 50:1, 500:1, 2500:1, 5000:1 xanthine to AO in distilled water. Microscope slides coated with chicken erythrocytes were exposed to a mixture of xanthine/AO at each molar ratio for periods of 10 min, 1 min, and 10 seconds under static (non-agitated) conditions. […] Following exposure to the xanthine/AO or to the DNA/AO solutions, the slides were rinsed in distilled water, allowed to dry at room temperature, examined by fluorescence microscopy, and the color of the nuclei recorded. Results were recorded as follows: 0=no blocking effect; 1=slight blocking; 2=moderate blocking; 3=almost total blocking (very slight green fluorescence detectable); 4=complete blockage (no green fluorescence detectable).
In the implementation shown in Table 4-2, the relative intensity of the green fluorescent color ([…]) utilizing a red blocking filter (≧600 nm) was used as the indicator of the intensity of staining. The molar ratio is expressed as the ratio of xanthine concentration to 10 μM AO. Results were recorded as follows: 0=no blocking effect; 1=slight blocking; 2=moderate blocking; 3=almost total blocking (very slight green fluorescence detectable); 4=complete blockage (no green fluorescence detectable). *Kassoc values for the xanthines are taken from Table 2-1 and the Kassoc values for DNA were taken from Table 3-2.

[3] = system: chicken erythrocyte nuclear chromatin; test: Removal of acridine orange from stained chicken erythrocyte nuclear chromatin by xanthine rinse, fluorescence microscopy; details: for Nuclear color, Stain: before xanthine rinse; for Nuclear color, Re-stain: re-stained after xanthine rinse; for Nuclear color, After Rinse: xanthine rinse 50 mM, 1 hour, static
Procedure: Experiments were conducted to determine whether xanthines with known binding affinities to AO could compete with nuclear DNA for binding to AO and, therefore, be able to remove AO from its intercalation position within nuclear chromatin. Fluorescence microscopy was used to observe the fluorescent color produced by the AO-DNA complex following the staining of chicken erythrocyte nuclear chromatin with AO at both 5 μM and 5 mM.
Microscope slides smeared with chicken erythrocytes were stained with either 5 μM or 5 mM AO for a period of 30 minutes followed by three 10 second rinses in distilled water before drying at room temperature. Slides were then examined by fluorescence microscopy using a, Zeiss Model 63 Microscope with a xenon source fluorescent emitter. In some instances, a blocking filter was used to filter out fluorescence emission in the red and higher wavelengths. Photomicrographs were taken with Kodak Gold 35 mm ASA 1600 speed film, developed and color prints made. Comparative photomicrographs were taken at the same magnification and at the same exposure time. Selected photomicrographs were digitally scanned (Hewitt-Packard, Model 4L Scanner, Palo Alto, Calif.) and stored on 100 MB ZIP cartridges.
Slides were again examined by fluorescence microscopy and fluorescence color of the nuclei recorded. Slides were again stained with 5 mM AO then re-examined by fluorescence microscopy and fluorescence color of the nuclei recorded.
In the example shown in Table 4-3, the chicken erythrocytes were smeared and dried on a microscope slide prior to exposure to the AO solution for 30 minutes followed by water rinses to remove excess AO. Following drying, each slide was observed under fluorescence microscopy then placed in one of the xanthine solutions (50 ml volume) for 1 hour under static conditions, rinsed with water, then dried prior to being observed by fluorescence microscopy without a red blocking filter. Finally, each slide was restained following the initial staining procedures and again observed by fluorescence microscopy. Kassoc values are taken from Table 2-1 and are expressed in M^−1.

[4] = Table 2-2, Kassoc value with acridine orange (this report)
[5] = Xanthine/AO molar ratio 5000:1, exposure 10 min
[6] = molar ratio 50:1, exposure 10 sec
[7] = molar ratio 50:1, exposure 1 min
[8] = molar ratio 50:1, exposure 10 min
[9] = molar ratio 500:1, exposure 10 sec
[10] = molar ratio 500:1, exposure 1 min
[11] = molar ratio 500:1, exposure 10 min
[12] = molar ratio 2500:1, exposure 10 sec
[13] = molar ratio 2500:1, exposure 1 min
[14] = molar ratio 2500:1, exposure 10 min
[15] = molar ratio 5000:1, exposure 10 sec
[16] = molar ratio 5000:1, exposure 1 min
[17] = Table 4-2, in parentheses under compound, taken from Table 2-1
[18] = Table 4-3, taken from Table 2-1

Structure (SMILES): Cn1c(=O)c2[nH]c(Cl)nc2n(C)c1=O [1,3-dimethyl-8-chloro xanthine]
- Kassoc ± S.E. [1]: 412.5 ± 11.7 M⁻¹
- complex formation / binding affinity with AO [1]: failed to exhibit any significant binding affinity for AO

Structure (SMILES): Clc1ncnc2nc[nH]c12 [6-chloro purine]
- Kassoc ± S.E. [1]: 0 M⁻¹

Structure (SMILES): Cn1c(=O)[nH]c2nc[nH]c2c1=O [1-methyl xanthine]
- Kassoc [1, 4]: 79^a M^−1
- Kassoc ± S.E. [1]: 79.2 ± 2.0 M⁻¹
- complex formation / binding affinity with AO [1]: failed to exhibit any significant binding affinity for AO

Structure (SMILES): Cc1ncnc2nc[nH]c12 [6-methyl purine]
- Kassoc ± S.E. [1]: 0 M⁻¹

Structure (SMILES): Cn1c(=O)c2c(n(C)c1=O)n(C)c(=O)n2C [1,3,7,9-tetramethyl-8-oxy xanthine]
- blocking of AO intercalation [2, 5]: 2
- blocking of AO intercalation [2, 6]: 0
- blocking of AO intercalation [2, 7]: 0
- blocking of AO intercalation [2, 8]: 0
- blocking of AO intercalation [2, 9]: 0
- blocking of AO intercalation [2, 10]: 0
- blocking of AO intercalation [2, 11]: 0
- blocking of AO intercalation [2, 12]: 0
- blocking of AO intercalation [2, 13]: 1
- blocking of AO intercalation [2, 14]: 1
- blocking of AO intercalation [2, 15]: 2
- blocking of AO intercalation [2, 16]: 2
- effect of xanthine rinse on fluorescence of AO stained nuclear chromatin ([3]; 50 mM xanthine rinse): removal of most, if not all, green and red color
- Nuclear color, Stain ([3]; AO [5 μM] 30 minutes): Green
- Nuclear color, Re-stain ([3]; AO [5 μM]): Green
- Nuclear color, After Rinse ([3]; AO [5 μM]): None
- Nuclear color, Stain ([3]; AO [5 mM] 30 minutes): Red
- Nuclear color, Re-stain ([3]; AO [5 mM]): Red
- Nuclear color, After Rinse ([3]; AO [5 mM]): None
- Kassoc [1, 4]: 552 M⁻¹
- Kassoc [1, 17]: (552) M^−1
- Kassoc [1, 18]: 552 M⁻¹
- Kassoc ± S.E. [1]: 551.5 ± 9.0 M⁻¹
- Kassoc ± S.E. ([1]; listed as 1,3,7,9-tetramethyl uric acid): 552 M⁻¹

Structure (SMILES): c1ncc2[nH]cnc2n1 [Purine]
- Kassoc ± S.E. [1]: ~2 M⁻¹

Structure (SMILES): Cn1c(=O)[nH]c2[nH]c(=O)[nH]c(=O)c21 [7-methyl-8-oxy xanthine]
- Kassoc ± S.E. [1]: 0 M⁻¹
- complex formation / binding affinity with AO [1]: little or no affinity to complex with AO

Structure (SMILES): Cn1cnc2[nH]c(=O)[nH]c(=O)c21 [7-methyl xanthine]
- Kassoc ± S.E. [1]: 0 M⁻¹
- complex formation / binding affinity with AO [1]: little or no affinity to complex with AO

Structure (SMILES): Cn1c(=O)c2[nH]c(=O)[nH]c2n(C)c1=O [1,3-dimethyl-8-oxy xanthine]
- Kassoc ± S.E. [1]: 38.5 M⁻¹ and 38.5 ± 2.2 M⁻¹
- complex formation / binding affinity with AO [1]: failed to exhibit any significant binding affinity for AO

Structure (SMILES): Cn1c(=O)[nH]c(=O)c2[nH]cnc21 [3-methyl xanthine]
- complex formation / binding affinity with AO [1]: little or no affinity to complex with AO

Structure (SMILES): Cn1cnc2ncnc-2c1N [1-methyl-6-amino purine]
- Kassoc ± S.E. [1]: ~14 M⁻¹

Structure (SMILES): Cn1c(=O)c2[nH]cnc2n(C)c1=O [1,3-dimethyl xanthine (theophylline), 1,3-dimethyl xanthine]
- blocking of AO intercalation [2, 5]: 0
- blocking of AO intercalation [2, 6]: 0
- blocking of AO intercalation [2, 7]: 0
- blocking of AO intercalation [2, 8]: 0
- blocking of AO intercalation [2, 9]: 0
- blocking of AO intercalation [2, 10]: 0
- blocking of AO intercalation [2, 11]: 0
- blocking of AO intercalation [2, 12]: 0
- blocking of AO intercalation [2, 13]: 0
- blocking of AO intercalation [2, 14]: 0
- blocking of AO intercalation [2, 15]: 0
- blocking of AO intercalation [2, 16]: 0
- Nuclear color, Stain ([3]; AO [5 μM] 30 minutes): Green
- Nuclear color, Re-stain ([3]; AO [5 μM]): Green
- Nuclear color, After Rinse ([3]; AO [5 μM]): Green
- Nuclear color, Stain ([3]; AO [5 mM] 30 minutes): Red
- Nuclear color, Re-stain ([3]; AO [5 mM]): Red
- Nuclear color, After Rinse ([3]; AO [5 mM]): Red
- Kassoc [1, 4]: 157 M⁻¹
- Kassoc [1, 17]: (157) M^−1
- Kassoc [1, 18]: 161 M⁻¹
- Kassoc ± S.E. [1]: 160.8 M⁻¹

Structure (SMILES): Cn1c(=O)[nH]c2[nH]c(=O)[nH]c2c1=O [1-methyl-8-oxy xanthine]
- Kassoc ± S.E. [1]: 0 M⁻¹
- complex formation / binding affinity with AO [1]: failed to exhibit any significant binding affinity for AO

Structure (SMILES): O=c1[nH]c(=O)c2[nH]c(=O)[nH]c2[nH]1 [uric acid (8-oxy xanthine), 8-oxy xanthine]
- Kassoc ± S.E. [1]: 0 M⁻¹
- complex formation / binding affinity with AO [1]: did not complex with AO

Structure (SMILES): COc1nc(N)nc2nc[nH]c12 [2-amino-6-methoxy purine]
- Kassoc ± S.E. [1]: ~2 M⁻¹

Structure (SMILES): Cn1c(=O)[nH]c2ncn(C)c2c1=O [1,7-dimethyl xanthine]
- Kassoc [1, 4]: 155 M⁻¹
- Kassoc ± S.E. [1]: 155.3 ± 3.1 M⁻¹
